Where “and” joins values, the source holds several entries; their conditions need not be identical. Equal entries are not always repeated. Where two headings read alike, the source gives them in different places.
Experiments:
[1] = system: cows (Holstein Friesians); experiment: Treatment with DPD analogs (organosulfur compounds) and milk yield (Example 8); assay type: in vivo, cow; conditions: for Milk yield (kg) After 24 h / Milk yield (kg) After 48 h / Milk yield (kg) After 72 h / Milk yield (kg) After 96 h / Milk yield (kg) Last milking / Average reduction after 24 and 48 h (%) / average reduction after 24, 48 and 72 h (%) / % reduction after 24 h / % reduction after 48 h / % reduction after 72 h / % reduction after 96 h: individual cows; for Milk yield (kg) After 24 h / Milk yield (kg) After 48 h / Milk yield (kg) After 72 h / Milk yield (kg) After 96 h / Average reduction after 24 and 48 h (%) / average reduction after 24, 48 and 72 h (%) / % reduction after 24 h / % reduction after 48 h / % reduction after 72 h / % reduction after 96 h: dose per compound as listed in E284; for % reduction after 24 h average (milk yield): 24 h after one oral gel capsule; for % reduction after 24 h average (milk yield) / % reduction after 48 h average (milk yield) / % reduction after 72 h average (milk yield) / % reduction after 96 h average (milk yield) / average reduction after 24, 48 and 72 h (%) (milk yield) / Average reduction after 24 and 48 h (%) (milk yield): dose equimolar to 80 ml di-n-propyl disulfide; for % reduction after 24 h average (milk yield) / % reduction after 48 h average (milk yield) / % reduction after 72 h average (milk yield) / % reduction after 96 h average (milk yield): negative value = increase in yield; for % reduction after 48 h average (milk yield): 48 h after one oral gel capsule; for % reduction after 72 h average (milk yield): 72 h after one oral gel capsule; for % reduction after 96 h average (milk yield): 96 h after one oral gel capsule; for average reduction after 24, 48 and 72 h (%) (milk yield): average of 24, 48 and 72 h after one oral gel capsule; for Average reduction after 24 and 48 h (%) (milk yield): average of 24 and 48 h after one oral gel capsule; for Milk yield (kg) Last milking: before administration, single oral gel capsule dose per cow (ml unless g): diethyl disulfide 63, di-n-propyl disulfide 80, diisopropyl disulfide 160, di-n-butyl disulfide 100, dibenzyl disulfide 102, diethyl sulfide 55, di-n-propyl sulfide 72, diisopropyl sulfide 74, di-n-butyl sulfide 90, dibenzyl sulfide 96 g, diphenyl sulfide 85, di-n-propyl trisulfide 98, di-n-propyl sulfone 6; for % reduction after 24 h / % reduction after 48 h / % reduction after 72 h / % reduction after 96 h: vs milk yield before treatment
Experimental: Study design. 36 cows (Holstein Friesians) from 2 farms were used. The feed of the cows was composed of TMR, including corn and grass silage, supplemented with soya and minerals. […] The cows were milked in a milk robot. […] The cows were milked twice a day. The cows were housed in free stables. […] Placebo treatment corresponded to administration of two gel capsules containing 180 ml water.
For this study dosages synthetic compounds (>96% purity) as indicated in table 17 were administered to cows. The objective of this study was to compare the activity of a corresponding dose of the compounds expressed in mol, based on the number of moles that is present in 80 ml di-n-propyl disulfide at 20° C. The number of moles was converted to ml or grams of the tested compounds. For this purpose, the molecular weight and specific density were used in the calculations. The compounds were formulated in the gel capsules as indicated in the previous examples.
Before the various dosages were administered, the milk yields were monitored for at least 5 days.

[2] = system: cows (Holstein Friesians)
Experimental: Study design. Twelve cows (Holstein Friesians) from 1 farm were used. The start of the dry period of every cow was between 40 to 60 days before calving. The cows were milked twice a day at fixed times and the cows were selected on a milk production of >12.5 litres/day 24 hours before PTS administering took place. […] No extra measures were taken to stimulate dry-off, such as changes in feed ration or changes in milking frequency. The cows were milked twice a day. The cows were housed in free stables. A porcine gelatine capsule with PTS or placebo gel capsule with water were administered 7 to 14 days before the start of the dry-off period.
For this study various dosages synthetic PTS (>98% purity) were administered to cows with a milk yield of at least 12.5 kg milk per day. The following dosages were applied: 0, 10, 20, 40 ml of pure PTS. For each dosage 2 cows were used.
Before the various dosages were administered the milk yield was monitored for 14 days. The gel capsules were orally administered by a bolus shooter, the gel capsule for the placebo group contained tap water. Administering of a capsule took place between the morning and afternoon milking. On t=14 days the PTS-containing capsules and the placebo capsules were administered and the milk yield was monitored 48 hours more.

Compound: CCCS(=O)(=O)CCC [Di-n-propyl sulfone, di-n-propyl sulfone]
- Milk yield (kg) After 24 h [1]: 13.7 kg
- Milk yield (kg) After 48 h [1]: 13.8 kg
- Milk yield (kg) After 72 h [1]: 15.2 kg
- Milk yield (kg) After 96 h [1]: 18.7 kg

Compound: [O-][S+](Cc1ccccc1)SCc1ccccc1 (stereo not shown) [Dibenzyl thiosulfinate, di-benzyl thiosulfinate]
- % reduction after 24 h average (milk yield) [1]: 38%
- % reduction after 48 h average (milk yield) [1]: 37%
- % reduction after 72 h average (milk yield) [1]: 27.5%
- % reduction after 96 h average (milk yield) [1]: 5%
- average reduction after 24, 48 and 72 h (%) (milk yield) [1]: 34.2%
- Average reduction after 24 and 48 h (%) (milk yield) [1]: 37.5%
- Milk yield (kg) Last milking [1]: 30.3 kg and 27.9 kg
- Average reduction after 24 and 48 h (%) [1]: 32.5% and 42.5%
- Milk yield (kg) After 24 h [1]: 20.4 kg and 15.6 kg
- Milk yield (kg) After 48 h [1]: 20.7 kg and 15.9 kg
- Milk yield (kg) After 72 h [1]: 24.3 kg and 17.9 kg
- Milk yield (kg) After 96 h [1]: 28.1 kg and 27.3 kg
- average reduction after 24, 48 and 72 h (%) [1]: 28.5% and 39.7%
- % reduction after 24 h [1]: 33% and 43%
- % reduction after 48 h [1]: 32% and 42%
- % reduction after 72 h [1]: 20% and 35%
- % reduction after 96 h [1]: 7% and 3%

Compound: O=S(=O)(Cc1ccccc1)SCc1ccccc1 [Dibenzyl thiosulfonate, di-benzyl thiosulfonate]
- % reduction after 24 h average (milk yield) [1]: 48%
- % reduction after 48 h average (milk yield) [1]: 48%
- % reduction after 72 h average (milk yield) [1]: 28%
- % reduction after 96 h average (milk yield) [1]: 15%
- average reduction after 24, 48 and 72 h (%) (milk yield) [1]: 41.3%
- Average reduction after 24 and 48 h (%) (milk yield) [1]: 48%
- Milk yield (kg) Last milking [1]: 27.8 kg
- Average reduction after 24 and 48 h (%) [1]: 48%
- Milk yield (kg) After 24 h [1]: 14.5 kg
- Milk yield (kg) After 48 h [1]: 14.6 kg
- Milk yield (kg) After 72 h [1]: 19.9 kg
- Milk yield (kg) After 96 h [1]: 23.5 kg
- average reduction after 24, 48 and 72 h (%) [1]: 41.3%
- % reduction after 24 h [1]: 48%
- % reduction after 48 h [1]: 48%
- % reduction after 72 h [1]: 28%
- % reduction after 96 h [1]: 15%

Compound: CC(C)SSC(C)C [Diisopropyl disulfide, di-isopropyl disulfide]
- Milk yield (kg) After 24 h [1]: 13.6 kg
- Milk yield (kg) After 48 h [1]: 15.4 kg
- Milk yield (kg) After 72 h [1]: 18.5 kg
- Milk yield (kg) After 96 h [1]: 19.5 kg

Compound: CCCS[S+]([O-])CCC (stereo not shown) [PTS, di-n-propyl thiosulfinate]
- % reduction after 24 h average (milk yield) [1]: 45%
- % reduction after 48 h average (milk yield) [1]: 44%
- % reduction after 72 h average (milk yield) [1]: 23%
- % reduction after 96 h average (milk yield) [1]: 10%
- average reduction after 24, 48 and 72 h (%) (milk yield) [1]: 37%
- Average reduction after 24 and 48 h (%) (milk yield) [1]: 45%
- Milk yield (kg) Last milking [1]: 28.6 kg and 32.7 kg
- Average reduction after 24 and 48 h (%) [1]: 49% and 40%
- Milk yield (kg) After 24 h [1]: 14.5 kg and 19.4 kg
- Milk yield (kg) After 48 h [1]: 14.9 kg and 20 kg
- Milk yield (kg) After 72 h [1]: 23.4 kg and 23.9 kg
- Milk yield (kg) After 96 h [1]: 27.2 kg and 27.8 kg
- average reduction after 24, 48 and 72 h (%) [1]: 39% and 35.7%
- % reduction after 24 h [1]: 49% and 40%
- % reduction after 48 h [1]: 48% and 39%
- % reduction after 72 h [1]: 18% and 27%
- % reduction after 96 h [1]: 5% and 15%
- effect on milk yield compared to the milk yield before treatment ([2]; 20 ml PTS): clear lowering on milk yield
- effect on milk yield/day ([2]; 40 and 60 ml PTS): visible
- Milk yield ([2]; 40 ml PTS given after last milking on day 0, day 0, individual cows): 32.4 kg and 28.4 kg
- Milk yield ([2]; 40 ml PTS given on day 0, day 1, individual cows): 22.4 kg and 21.9 kg
- Milk yield ([2]; 40 ml PTS given on day 0, day 2, individual cows): 24.4 kg and 23.4 kg
- Milk yield ([2]; 40 ml PTS given on day 0, day 3, individual cows): 28.9 kg and 26.4 kg
- Milk yield ([2]; 40 ml PTS given on day 0, day 4, individual cows): 32.2 kg and 27.1 kg
- Milk yield ([2]; 40 ml PTS given on day 0, day 5, individual cows): 31.2 kg and 28.2 kg
- Milk yield ([2]; 40 ml PTS given on day 0, day 6, individual cows): 32.0 kg and 28.3 kg
- Milk yield ([2]; 40 ml PTS given on day 0, day −1, individual cows): 31.9 kg and 27.7 kg
- Milk yield ([2]; 40 ml PTS given on day 0, day −2, individual cows): 32.2 kg and 28.9 kg
- Milk yield ([2]; 40 ml PTS given on day 0, day −3, individual cows): 33.3 kg and 28.1 kg
- Milk yield ([2]; 40 ml PTS given on day 0, day −4, individual cows): 31.9 kg and 28.5 kg
- Milk yield ([2]; 40 ml PTS given on day 0, day −5, individual cows): 31.4 kg and 27.9 kg
- Milk yield ([2]; 40 ml PTS given on day 0, day −6, individual cows): 33.2 kg and 28.3 kg
- Average milking/day of last 7 days before administration ([2]; 40 ml PTS, individual cows): 32.3 kg and 28.3 kg
- % reduction after 24 h ([2]; 40 ml PTS, individual cows): 31% and 23%
- % reduction after 48 h ([2]; 40 ml PTS, individual cows): 24% and 17%
- % reduction after 72 h ([2]; 40 ml PTS, individual cows): 11% and 7%
- Average reduction 24 and 48 h (%) ([2]; 40 ml PTS, individual cows): 28% and 20%
- Milk yield After 24 h ([2]; 40 ml PTS, individual cows): 22.4 kg and 21.9 kg
- Milk yield After 48 h ([2]; 40 ml PTS, individual cows): 24.4 kg and 23.4 kg
- Milk yield After 72 h ([2]; 40 ml PTS, individual cows): 28.9 kg and 26.4 kg
- Milk yield After 96 h ([2]; 40 ml PTS, individual cows): 32.2 kg and 27.1 kg
- Milk yield After 120 h ([2]; 40 ml PTS, individual cows): 31.2 kg and 28.2 kg
- Milk yield ([2]; 60 ml PTS given after last milking on day 0, day 0, individual cows): 32.4 kg and 29.3 kg
- Milk yield ([2]; 60 ml PTS given on day 0, day 1, individual cows): 19.4 kg and 14.5 kg
- Milk yield ([2]; 60 ml PTS given on day 0, day 2, individual cows): 20.0 kg and 14.9 kg
- Milk yield ([2]; 60 ml PTS given on day 0, day 3, individual cows): 23.9 kg and 23.4 kg
- Milk yield ([2]; 60 ml PTS given on day 0, day 4, individual cows): 27.8 kg and 27.2 kg
- Milk yield ([2]; 60 ml PTS given on day 0, day 5, individual cows): 31.6 kg and 28.3 kg
- Milk yield ([2]; 60 ml PTS given on day 0, day 6, individual cows): 32.2 kg and 27.4 kg
- Milk yield ([2]; 60 ml PTS given on day 0, day −1, individual cows): 32.2 kg and 28.1 kg
- Milk yield ([2]; 60 ml PTS given on day 0, day −2, individual cows): 33.2 kg and 28.3 kg
- Milk yield ([2]; 60 ml PTS given on day 0, day −3, individual cows): 31.9 kg and 27.4 kg
- Milk yield ([2]; 60 ml PTS given on day 0, day −4, individual cows): 33.5 kg and 29.6 kg
- Milk yield ([2]; 60 ml PTS given on day 0, day −5, individual cows): 32.4 kg and 28.3 kg
- Milk yield ([2]; 60 ml PTS given on day 0, day −6, individual cows): 33.4 kg and 28.9 kg
- Average milking/day of last 7 days before administration ([2]; 60 ml PTS, individual cows): 28.6 kg and 32.7 kg
- % reduction after 24 h ([2]; 60 ml PTS, individual cows): 51% and 40%
- % reduction after 48 h ([2]; 60 ml PTS, individual cows): 48% and 39%
- % reduction after 72 h ([2]; 60 ml PTS, individual cows): 18% and 27%
- % reduction after 96 h ([2]; 60 ml PTS, individual cows): 5% and 15%
- Average reduction 24 and 48 h (%) ([2]; 60 ml PTS, individual cows): 50% and 40%
- Milk yield After 24 h ([2]; 60 ml PTS, individual cows): 14.5 kg and 19.4 kg
- Milk yield After 48 h ([2]; 60 ml PTS, individual cows): 14.9 kg and 20 kg
- Milk yield After 72 h ([2]; 60 ml PTS, individual cows): 23.4 kg and 23.9 kg
- Milk yield After 96 h ([2]; 60 ml PTS, individual cows): 27.2 kg and 27.8 kg
- Milk yield After 120 h ([2]; 60 ml PTS, individual cows): 28.3 kg and 31.6 kg
- time to recovery of milk yield after administration ([2]; PTS): 3 to 4 days
- damage to the udder ([2]; bovine, in vivo): does not reduce milk yield because of damaging the udder

Compound: di-isopropyl thiosulfonate [Diisopropyl thiosulfonate]
- % reduction after 24 h average (milk yield) [1]: 28%
- % reduction after 48 h average (milk yield) [1]: 26%
- % reduction after 72 h average (milk yield) [1]: 9%
- % reduction after 96 h average (milk yield) [1]: 0%
- average reduction after 24, 48 and 72 h (%) (milk yield) [1]: 21%
- Average reduction after 24 and 48 h (%) (milk yield) [1]: 27%
- Milk yield (kg) Last milking [1]: 28.9 kg
- Average reduction after 24 and 48 h (%) [1]: 27%
- Milk yield (kg) After 24 h [1]: 20.8 kg
- Milk yield (kg) After 48 h [1]: 21.4 kg
- Milk yield (kg) After 72 h [1]: 26.3 kg
- Milk yield (kg) After 96 h [1]: 28.8 kg
- average reduction after 24, 48 and 72 h (%) [1]: 21%
- % reduction after 24 h [1]: 28%
- % reduction after 48 h [1]: 26%
- % reduction after 72 h [1]: 9%
- % reduction after 96 h [1]: 0%
